Reference: patent US10870876B2, “Method for detecting a presence or absence of at least one first zone of inhibition” (BIOMÉRIEUX, priority 2015, dated 2020)
≈ marks a conversion by molar mass, not a printed value.

Experiments:
Format in all cases: cell-based
[1] = system: Escherichia coli ATCC 25922; assay: Etest strip MIC, conventional method by flooding of the medium; details: for MIC: Escherichia coli, ATCC25922, ATCC 25922, 0.5 McFarland, read-out: minimum inhibitory concentration; for minimum inhibitory concentration: ATCC 25922, 0.5 McFarland
Method: (§1) Another method for detecting sensitivity to antibiotics uses an antibiotic gradient deposited on an agar medium. For this purpose, paper or plastic strips are impregnated with a concentration gradient of antibiotic. The strips soaked in this way are graduated so as to indicate the antibiotic concentration values present along the strip. One or more strips may be placed on a Mueller-Hinton agar, inoculated beforehand in the same way as the above method. After incubation, an ovoid area of inhibition of microbial growth around each strip appears if the microorganism present in the sample is sensitive to the antibiotic contained in the strip. It is thus possible to deduce a minimum inhibitory concentration (MIC) for microbial growth. The minimum concentration of the antimicrobial agent which makes it possible to inhibit the growth of the microorganism which is generally retained is thus the value of the concentration which can be read on the graduation directly below the point of contact between the zone of inhibition and the long edge of the strip. In other words, the MIC is the concentration visible at the limit of the zone of inhibition, at the boundary between the zone of growth of the microorganisms and the zone of non-growth. More particularly, the MIC can be read by noting the point at which the ovoid area of the zone of inhibition intersects the strip, and by noting the corresponding graduation.
(§2) According to a first experiment of this example, an inoculum of a strain of Escherichia coli ATCC 35218 (American Type Culture Collection) having a concentration of 0.5 McFarland is thus deposited in droplets along four Etest® strips (bioMérieux), each deposited on a Mueller Hinton E agar culture medium (bioMérieux). The strips contain respectively a concentration gradient of gentamicin, tetracycline, ampicillin/sulbactam, ampicillin. In the same manner, an inoculum of a strain of Escherichia coli ATCC 25922 having a concentration of 0.5 McFarland is deposited in droplets along four Etest® strips (bioMérieux), each deposited on a Mueller Hinton E agar culture medium (bioMérieux). The strips also contain a concentration gradient of gentamicin, tetracycline, ampicillin/sulbactam, ampicillin.
(§3) The values are given in μg/ml at different incubation times. The inhibition values for the flooding method are measured from images obtained by a shadowgraphy capture device as described above. The inhibition values for the method according to the invention are measured from images obtained by a shadowgraphy capture device at 5 hours, and visually at 7 hours.

[2] = system: Escherichia coli ATCC 35218; assay: as above; design: key: R = resistant
Method: as §1, §2, §3

[3] = system: Escherichia coli ATCC 25922; assay: Etest strip MIC, deposition of the sample in droplets along the strip; details: for MIC: Escherichia coli, ATCC25922, ATCC 25922, 0.5 McFarland, read-out: minimum inhibitory concentration; for minimum inhibitory concentration: ATCC 25922, 0.5 McFarland
Excerpt: (§4) FIGS. 8a to 8d and 9a to 9d illustrate this second example of implementation of the invention. According to FIG. 8a, a sample 1 is deposited in the form of a series of droplets, along an axis parallel to the long edge of a strip 3 containing a concentration gradient of chemical agent. The strip 3 comprises graduations of concentrations of chemical agent 13, making it possible to deduce a minimum inhibitory concentration of chemical agent. An example of such a strip is sold by the applicant under the trade name Etest®. According to the FIG. 8b, a strip 3 containing a chemical agent 5 is deposited on a culture medium 2 contained in a Petri dish 4 (for example a Petri dish with a diameter greater than or equal to 9 cm). The detail B in FIG. 8b is visible in FIG. 8c. A sample 1 is deposited in the form of a series of droplets in a deposition zone 8 along an axis 7 parallel to the long edge of the strip 3. In this example, 13 nanoliter drops are deposited by a Pipejet P9 Nanodispenser pipette sold by the company biofluidix and mounted on a robotic arm. The detail C in FIG. 8c is visible in FIG. 8d. 50 droplets are thus deposited along the axis 7 with an interval P of 800 μm. Each droplet covers a surface area of approximately 1 mm^2.
as §2
(§5) Fifty droplets, each with a volume of 13 nanoliters and spaced apart by 800 μm, are deposited along each strip. As a function of the concentration of 0.5 McFarland, it is thus estimated that approximately 2000 bacteria are present in each droplet. The eight culture media prepared in this way are then incubated and monitored periodically in order to determine the presence or the absence of a zone of inhibition and/or of growth of the microorganisms.
as §3, with “The minimum inhibitory concentration results obtained for the strains of Escherichia coli ATCC 35218 and also the strains of Escherichia coli ATCC 25922 are compared with the conventional method by flooding of the medium in table 1 below. The values” for “The values”

[4] = system: Escherichia coli ATCC 35218; assay: as above; design: key to minimum inhibitory concentration / MIC: R = resistant
Excerpt: as §4, §2, §5
FIGS. 9a to 9d illustrate a plan view of the four media in which the sample of Escherichia coli ATCC 35218 was deposited. FIGS. 9a to 9d are obtained by means of a shadowgraphy capture device as presented in relation to FIG. 5. FIG. 9a presents a view after 5 hours of incubation of the sample in the presence of gentamicin. […] A minimum inhibitory concentration value is then obtained at the intersection between the straight line 14 and the long edge of the strip. A minimum inhibitory concentration (MIC) of 2 μg/ml is thus determined.
Advantageously, a straight line or an arc 15 delimiting the boundary of the zone of growth of microorganisms and the zone of inhibition may be sought, this straight line not necessarily being perpendicular to the long edge and thus reproducing said boundary more faithfully. This straight line or this arc corresponds to a portion of the ovoid area of inhibition observed with conventional inoculation methods and therefore enables better estimation of the MIC. In the case in which a straight line or an arc 15 is sought, the minimum inhibitory concentration may be obtained by tracing a line perpendicular to the long edge of the strip, crossing the point of intersection between the straight line 15 and the axis of deposition of the sample 7, then by seeking the graduation corresponding to this perpendicular line on the strip. […]

[5] = incubation time 5 H (shadowgraphy)
[6] = Escherichia coli, ATCC35218, droplets of 13 nanoliters, ATCC 35218 at 0.5 McFarland, after 5 hours of incubation, shadowgraphy (FIGS. 9a-9d), read-out: minimum inhibitory concentration (MIC)
[7] = Flooding, ATCC 35218, 0.5 McFarland, incubation time 6 H
[8] = Flooding, ATCC 35218, 0.5 McFarland, incubation time 8 H
[9] = Table 2, flooding, ATCC 35218, 28 H
[10] = Deposition in droplets, ATCC 35218, 0.5 McFarland, incubation time 5 H (shadowgraphy)
[11] = Deposition in droplets, ATCC 35218, 0.5 McFarland, incubation time 7 H (visual)
[12] = Table 2, droplet (replicate 1 where replicated), ATCC 35218, 0.5 McF, 5 H
[13] = Table 2, droplet (replicate 1 where replicated), ATCC 35218, 0.5 McF, 7 H

CN(C)[C@@H]1C(O)=C(C(N)=O)C(=O)[C@@]2(O)C(O)=C3C(=O)c4c(O)cccc4[C@@](C)(O)[C@H]3C[C@@H]12 [Tetracycline, tetracycline]
MIC ([1]; incubation time 4 H): 0.3 µg/mL (≈ 0.675 µM) | MIC ([1]; incubation time 5 H): 0.6 µg/mL (≈ 1.35 µM) | MIC ([1]; incubation time 6 H): 0.66 µg/mL (≈ 1.49 µM) | MIC ([1]; incubation time 8 H): 0.86 µg/mL (≈ 1.94 µM) | MIC ([1]; incubation time 24 H): 1.77 µg/mL (≈ 3.98 µM) | MIC ([2]; Escherichia coli, ATCC35218, Flooding, ATCC 35218, 0.5 McFarland, incubation time 4 H, read-out: minimum inhibitory concentration): 0.44 µg/mL (≈ 0.99 µM) | MIC ([2]; Escherichia coli, ATCC35218, Flooding, ATCC 35218, 0.5 McFarland, incubation time 5 H, read-out: minimum inhibitory concentration): 0.86 µg/mL (≈ 1.94 µM) | MIC ([2]; Escherichia coli, ATCC35218, Flooding, ATCC 35218, 0.5 McFarland, incubation time 6 H, read-out: minimum inhibitory concentration): 0.96 µg/mL (≈ 2.16 µM) | MIC ([2]; Escherichia coli, ATCC35218, Flooding, ATCC 35218, 0.5 McFarland, incubation time 8 H, read-out: minimum inhibitory concentration): 1.12 µg/mL (≈ 2.51 µM) | MIC ([2]; Escherichia coli, ATCC35218, Flooding, ATCC 35218, 0.5 McFarland, incubation time 24 H, read-out: minimum inhibitory concentration): 2.3 µg/mL (≈ 5.18 µM) | MIC ([2]; Escherichia coli, ATCC35218, Table 2, flooding, ATCC 35218, 4 H, read-out: MIC): 0.44 µg/mL (≈ 0.99 µM) | MIC ([2]; Escherichia coli, ATCC35218, Table 2, flooding, ATCC 35218, 5 H, read-out: MIC): 0.86 µg/mL (≈ 1.94 µM) | MIC ([2]; Escherichia coli, ATCC35218, Table 2, flooding, ATCC 35218, 8 H, read-out: MIC): 1.12 µg/mL (≈ 2.51 µM) | MIC ([2]; Escherichia coli, ATCC35218, Table 2, flooding, ATCC 35218, 28 H, read-out: MIC): 2.3 µg/mL (≈ 5.18 µM) | MIC ([2]; Escherichia coli, ATCC35218, Table 2, flooding, ATCC 35218, column 4 headed 8 H (between 5 H and 7 H), read-out: MIC): 0.96 µg/mL (≈ 2.16 µM) | MIC [3, 5]: 1.5 µg/mL (≈ 3.38 µM) | MIC ([3]; incubation time 7 H (visual)): 2 µg/mL (≈ 4.5 µM) | MIC ([4]; Escherichia coli, ATCC35218, Deposition in droplets, ATCC 35218, 0.5 McFarland, incubation time 5 H (shadowgraphy), read-out: minimum inhibitory concentration): 1.5 µg/mL (≈ 3.38 µM) | MIC ([4]; Escherichia coli, ATCC35218, Deposition in droplets, ATCC 35218, 0.5 McFarland, incubation time 7 H (visual), read-out: minimum inhibitory concentration): 2 µg/mL (≈ 4.5 µM) | MIC ([4]; Escherichia coli, ATCC35218, Table 2, droplet (replicate 1 where replicated), ATCC 35218, 0.5 McF, 5 H, read-out: MIC): 1.5 µg/mL (≈ 3.38 µM) | MIC ([4]; Escherichia coli, ATCC35218, Table 2, droplet (replicate 1 where replicated), ATCC 35218, 0.5 McF, 7 H, read-out: MIC): 2 µg/mL (≈ 4.5 µM) | MIC [4, 6]: 1.5 µg/mL (≈ 3.38 µM)

CC1(C)S[C@@H]2[C@H](NC(=O)[C@H](N)c3ccccc3)C(=O)N2[C@H]1C(=O)O [Ampicillin, ampicillin]
MIC ([1]; incubation time 6 H): 3.43 µg/mL (≈ 9.82 µM) | MIC ([1]; incubation time 8 H): 5.21 µg/mL (≈ 14.9 µM) | MIC ([1]; incubation time 18 H): 5.69 µg/mL (≈ 16.3 µM) | minimum inhibitory concentration [2, 7]: R | minimum inhibitory concentration [2, 8]: R | minimum inhibitory concentration ([2]; Flooding, ATCC 35218, 0.5 McFarland, incubation time 18 H): R | MIC [2, 9]: R | MIC [3, 5]: 8 µg/mL (≈ 22.9 µM) | MIC ([3]; incubation time 7 H (visual)): 8 µg/mL (≈ 22.9 µM) | minimum inhibitory concentration [4, 10]: R | minimum inhibitory concentration [4, 11]: R | MIC [4, 6]: > 256 µg/mL | MIC [4, 12]: R | MIC [4, 13]: R

gentamicin
minimum inhibitory concentration ([1]; incubation time 4 H): 1.74 µg/mL | minimum inhibitory concentration ([1]; incubation time 5 H): 1.51 µg/mL | minimum inhibitory concentration ([1]; incubation time 6 H): 1.75 µg/mL | minimum inhibitory concentration ([1]; incubation time 8 H): 1.82 µg/mL | minimum inhibitory concentration ([1]; incubation time 24 H): 1.54 µg/mL | minimum inhibitory concentration ([2]; Flooding, ATCC 35218, 0.5 McFarland, incubation time 4 H): 0.96 µg/mL | minimum inhibitory concentration ([2]; Flooding, ATCC 35218, 0.5 McFarland, incubation time 5 H): 1.14 µg/mL | minimum inhibitory concentration [2, 7]: 1.17 µg/mL | minimum inhibitory concentration [2, 8]: 1.17 µg/mL | minimum inhibitory concentration ([2]; Flooding, ATCC 35218, 0.5 McFarland, incubation time 24 H): 1.06 µg/mL | MIC ([2]; Table 2, flooding, ATCC 35218, 4 H): 0.96 µg/mL | MIC ([2]; Table 2, flooding, ATCC 35218, 5 H): 1.14 µg/mL | MIC [2, 9]: 1.06 µg/mL | minimum inhibitory concentration [3, 5]: 2 µg/mL | minimum inhibitory concentration ([3]; incubation time 7 H (visual)): 2 µg/mL | minimum inhibitory concentration [4, 10]: 2 µg/mL | minimum inhibitory concentration [4, 11]: 2 µg/mL | MIC [4, 12]: 2 µg/mL | MIC [4, 13]: 2 µg/mL | minimum inhibitory concentration (MIC) ([4]; droplets of 13 nanoliters, ATCC 35218 at 0.5 McFarland, after 5 hours of incubation, shadowgraphy (FIGS. 9a-9d)): 2 µg/mL
